# Where two headings read alike, the source gives them in different places.
# Assays:
# [1] = system: HCT-116 colon carcinoma cells; settings: cited from earlier work
# [2] = system: L5178Y mouse lymphoma cells; parameters: method as in PMID 19995673, PMID 3839712; settings: cited from earlier work
# HeLa = system: HeLa; parameters: method as in PMID 19995673, PMID 3839712; settings: cited from earlier work
# melanoma B16/F10 = system: melanoma B16/F10; parameters: method as in ref 21 = [21]; 21 Rodríguez J , Quiñoá E , Riguera R , Peters BM , Abrell LM , Crews P 1992 The structures and stereochemistry of cytotoxic sesquiterpene quinones from Dactylospongia elegans . Tetrahedron 48 , 6667; settings: cited from earlier work
# A-549 lung = system: A-549 lung; parameters: method as in ref 21 = [21]; 21 Rodríguez J , Quiñoá E , Riguera R , Peters BM , Abrell LM , Crews P 1992 The structures and stereochemistry of cytotoxic sesquiterpene quinones from Dactylospongia elegans . Tetrahedron 48 , 6667; settings: cited from earlier work
# P-388 leukaemia cells = system: P-388 leukaemia cells; parameters: method as in ref 21 = [21]; 21 Rodríguez J , Quiñoá E , Riguera R , Peters BM , Abrell LM , Crews P 1992 The structures and stereochemistry of cytotoxic sesquiterpene quinones from Dactylospongia elegans . Tetrahedron 48 , 6667; settings: cited from earlier work
# HT-29 colorectal = system: HT-29 colorectal; parameters: method as in ref 21 = [21]; 21 Rodríguez J , Quiñoá E , Riguera R , Peters BM , Abrell LM , Crews P 1992 The structures and stereochemistry of cytotoxic sesquiterpene quinones from Dactylospongia elegans . Tetrahedron 48 , 6667; settings: cited from earlier work
# leukaemia L-1210 = system: leukaemia L-1210; parameters: method as in ref 22 = [22]; 22 Shigemori H , Madono T , Sasaki T , Mikami Y , Kobayashi JI 1994 Nakijiquinones A and B, new antifungal sesquiterpenoid quinones with an amino acid residue from an Okinawan marine sponge . Tetrahed; settings: read-out: GI50 leukaemia L-1210; cited from earlier work
# epidermoid KB cell line = system: epidermoid KB cell line; parameters: method as in ref 22 = [22]; 22 Shigemori H , Madono T , Sasaki T , Mikami Y , Kobayashi JI 1994 Nakijiquinones A and B, new antifungal sesquiterpenoid quinones with an amino acid residue from an Okinawan marine sponge . Tetrahed; settings: cited from earlier work
# [3] = system: HepG2 hepatoma cancer cell line; parameters: method as in ref 23 = [23]; 23 Jiao W-H , Xu T-T , Yu H-B , Mu F-R , Li J , Li Y-S , Yang F , Han B-N , Lin H-W 2014 Dysidaminones A-M, cytotoxic and NF-B inhibitory sesquiterpene aminoquinones from the South China Sea sponge, D; settings: cited from earlier work
# NCI-H929 myeloma = system: NCI-H929 myeloma; parameters: method as in ref 23 = [23]; 23 Jiao W-H , Xu T-T , Yu H-B , Mu F-R , Li J , Li Y-S , Yang F , Han B-N , Lin H-W 2014 Dysidaminones A-M, cytotoxic and NF-B inhibitory sesquiterpene aminoquinones from the South China Sea sponge, D; settings: cited from earlier work
# A431 (skin carcinoma) = assay: MTT in vitro growth inhibition assay, A431; format: cell-based; settings: Homo sapiens
# U87 (glioblastoma) = assay: MTT in vitro growth inhibition assay, U87; format: cell-based
# [4] = system: Du145 (prostate carcinoma); assay: MTT in vitro growth inhibition assay, Du145; format: cell-based; settings: Homo sapiens
# HT29 (colon carcinoma) = assay: MTT in vitro growth inhibition assay, HT29; format: cell-based; settings: Homo sapiens
# [5] = system: A2780 (ovarian carcinoma); assay: MTT in vitro growth inhibition assay, A2780; format: cell-based; settings: Homo sapiens
# [6] = system: panel of 11 cancer cell lines and one normal cell line; assay: Cytotoxicity across the whole cell line panel (MTT); format: cell-based
# From the text: With the desired bolinaquinone analogues 12–43 in hand, we examined their cytotoxicity against a panel of 11 tumour cell lines: HT29 (colon carcinoma), U87 and SJ-G2 (glioblastoma), MCF-7 (breast carcinoma), A2780 (ovarian carcinoma), H460 (lung carcinoma), A431 (skin carcinoma), Du145 (prostate carcinoma), BE2-C (neuroblastoma), MIA (pancreatic carcinoma), SMA (spontaneous murine astrocytoma) and a normal breast cell line (MCF10A). The inclusion of the MCF-10A cell line allowed a determination of a crude measure of relative toxicity while noting that the ultimate arbiter of toxicity requires in vivo evaluation. All analogues were initially screened at a 25 µM drug concentration.
# Stock solutions were prepared as follows and stored at −20°C: drugs were stored as 40 mM solutions in DMSO. All cell lines were cultured in a humidified atmosphere 5% CO2 at 37°C. The cancer cell lines were maintained in Dulbecco's modified Eagle's medium (DMEM) (Trace Biosciences, Australia) supplemented with 10% fetal bovine serum, 10 mM sodium bicarbonate, penicillin (100 IU ml^−1), streptomycin (100 µg ml^−1) and glutamine (4 mM). The non-cancer MCF10A cell line was cultured in DMEM:F12 (1 : 1) cell culture media, 5% heat-inactivated horse serum, supplemented with penicillin (50 IU ml^−1), streptomycin (50 µg ml^−1), 20 mM Hepes, L-glutamine (2 mM), epidermal growth factor (20 ng ml^−1), hydrocortisone (500 ng ml^−1), cholera toxin (100 ng ml^−1) and insulin (10 ug ml^−1).
# Cells in logarithmic growth were transferred to 96-well plates. Cytotoxicity was determined by plating cells in duplicate in 100 µl medium at a density of 2500–4000 cells per well. On day 0 (24 h after plating), when the cells were in logarithmic growth, 100 μl of medium with or without the test agent was added to each well. After 72 h, drug exposure growth inhibitory effects were evaluated using the MTT (3-[4,5-dimethylthiazol-2-yl]-2,5-diphenyl-tetrazolium bromide) assay and the absorbance read at 540 nm. Percentage growth inhibition was determined at a fixed drug concentration of 25 µM. A value of 100% is indicative of complete cell growth inhibition. Those analogues showing appreciable percentage growth inhibition underwent further dose–response analysis allowing for the calculation of a GI50 value. This value is the drug concentration at which cell growth is 50% inhibited based on the difference between the optical density values on day 0 and those at the end of drug exposure.
# [7] = system: MCF10A (normal breast cell line); assay: MTT in vitro growth inhibition assay, MCF10A; format: cell-based; settings: Homo sapiens, MCF-10A
# MCF-7 (breast carcinoma) = assay: MTT in vitro growth inhibition assay, MCF-7; format: cell-based; settings: Homo sapiens
# BE2-C (neuroblastoma) = assay: MTT in vitro growth inhibition assay, BE2-C; format: cell-based; settings: Homo sapiens, BE(2)-C, 72 h
# SJ-G2 (glioblastoma) = assay: MTT in vitro growth inhibition assay, SJ-G2; format: cell-based; settings: 25 µM of drug, 72 h, read-out: Percentage of Cell Growth Inhibition SJ-G2
# [8] = system: SMA (spontaneous murine astrocytoma); assay: MTT in vitro growth inhibition assay, SMA; format: cell-based; settings: Mus musculus
# H460 (lung carcinoma) = assay: MTT in vitro growth inhibition assay, H460; format: cell-based; settings: Homo sapiens
# [9] = system: MIA (pancreatic carcinoma); assay: MTT in vitro growth inhibition assay, MIA; format: cell-based
smiles,measurement,setting,value
"COC1=CC(=O)C(O)=C(C[C@@]2(C)CC[C@]3(C)C(C)=CCC[C@H]3[C@H]2C)C1=O [compound 1, bolinaquinone]",GI50,[1]; 50% growth inhibition,5.3 µM
"CC1=CCC[C@H]2[C@](C)(CC3=CC(=O)C=CC3=O)[C@@H](C)CC[C@]12C [compound 2, avarone]",ED50 L5178Y mouse lymphoma cells,[2],0.62 ± 0.11 µM
same,GI50,HeLa,26.8 ± 3 µM
"COC1=CC(=O)C(O)=C(C[C@@]2(C)[C@H](C)[C@@H]3CCCC(C)(C)C3=C[C@@H]2C)C1=O [compound 3, mamanuthaquinone]",GI50,[1],5.58 µM
"C=C1CCC[C@H]2[C@](C)(CC3=C(O)C(=O)C=C(OC)C3=O)[C@@H](C)CC[C@]12C [compound 4, epi-ilimaquinone]",GI50,melanoma B16/F10,3.1 µM
same,GI50,A-549 lung,2.51 µM
same,GI50,P-388 leukaemia cells,6.14 µM
same,GI50,HT-29 colorectal,9.48 µM
"CC1=CCC[C@H]2[C@](C)(CC3=C(O)C(=O)C=C(NCC(=O)O)C3=O)[C@@H](C)CC[C@]12C [compound 5, nakijiquinone A]",GI50,leukaemia L-1210,9.46 µM
same,GI50 epidermoid KB,epidermoid KB cell line,18.92 µM
"CC1=CCC[C@H]2[C@](C)(CC3=CC(=O)C=C(NCC(C)C)C3=O)[C@@H](C)CC[C@]12C [compound 6, dysidaminone E-5]",GI50,[3],0.94 µM
"CC1=CCC[C@H]2[C@](C)(CC3=CC(=O)C=C(NCCc4ccccc4)C3=O)[C@@H](C)CC[C@]12C [compound 7, 18-phenethylaminoavarone]",GI50,NCI-H929 myeloma,1.76 µM
CCCNC1=C(c2ccc3ccccc3c2)C(=O)C(NCCC)=C(c2cccc3ccccc23)C1=O [compound 43],inhibition at 25 µM,"A431 (skin carcinoma); A-431, 25 µM of drug, 72 h, read-out: Percentage of Cell Growth Inhibition A431",92 ± 1%
same,GI50,"A431 (skin carcinoma); A-431, 72 h, 72 h drug exposure",0.11 µM
same,inhibition at 25 µM,"U87 (glioblastoma); 25 µM of drug, 72 h, read-out: Percentage of Cell Growth Inhibition U87",91 ± 1%
same,GI50,U87 (glioblastoma); 72 h drug exposure,2.1 ± 1 µM
same,inhibition at 25 µM,"[4]; DU-145, 25 µM of drug, 72 h, read-out: Percentage of Cell Growth Inhibition Du145",80 ± 2%
same,GI50,"[4]; DU-145, 72 h, 72 h drug exposure",0.16 ± 0.1 µM
same,inhibition at 25 µM,"HT29 (colon carcinoma); HT-29, 25 µM of drug, 72 h, read-out: Percentage of Cell Growth Inhibition HT29",81 ± 2%
same,GI50,"HT29 (colon carcinoma); HT-29, 72 h drug exposure",0.08 µM
same,inhibition at 25 µM,"[5]; 25 µM of drug, 72 h, read-out: Percentage of Cell Growth Inhibition A2780",94 ± 1%
same,GI50,[5]; 72 h drug exposure,0.14 ± 0.1 µM
same,activity at the initial screening concentration (to proceed to GI50 determination),[6]; 25 µM single dose,sufficient activity
same,potency enhancement over parent analogue,"[6]; 41 vs parent 29, 43 vs parent 33, on introduction of amine substituents",greater than or equal to 20 fold
same,GI50,"[6]; average over the cell line panel, read-out: average GI50",0.69 µM
same,inhibition at 25 µM,"[7]; 25 µM of drug, 72 h, read-out: Percentage of Cell Growth Inhibition MCF10A",89 ± 2%
same,GI50,"[7]; normal breast cell line, 72 h drug exposure",0.07 µM
same,inhibition at 25 µM,"MCF-7 (breast carcinoma); MCF7, 25 µM of drug, 72 h, read-out: Percentage of Cell Growth Inhibition MCF-7",77 ± 2%
same,GI50,"MCF-7 (breast carcinoma); MCF7, 72 h drug exposure",0.17 ± 0.1 µM
same,melting point,,210 to 213 °C
same,inhibition at 25 µM,"BE2-C (neuroblastoma); 25 µM of drug, read-out: Percentage of Cell Growth Inhibition BE2-C",44 ± 6%
same,GI50,BE2-C (neuroblastoma); 72 h drug exposure,0.08 µM
same,inhibition at 25 µM,SJ-G2 (glioblastoma),55 ± 1%
same,inhibition at 25 µM,"[8]; 25 µM of drug, 72 h, read-out: Percentage of Cell Growth Inhibition SMA",80 ± 7%
same,GI50,[8]; 72 h drug exposure,3.9 ± 3.5 µM
same,inhibition at 25 µM,"H460 (lung carcinoma); NCI-H460, 25 µM of drug, 72 h, read-out: Percentage of Cell Growth Inhibition H460",76 ± 1%
same,GI50,"H460 (lung carcinoma); NCI-H460, 72 h drug exposure",0.11 µM
same,inhibition at 25 µM,"[9]; 25 µM of drug, 72 h, read-out: Percentage of Cell Growth Inhibition MIA",90 ± 2%
same,GI50,[9]; 72 h drug exposure,0.1 µM
